Results from the supplement of paper PMC10307832.

Assays:
Assay in all cases: relative viability (nuclei count vs DMSO), 5 days (fraction); higher = more cells survive
SK-MES-1 = tested on: SK-MES-1
How it was run: (§1)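 Relative viability is defined as nuclei in treated wells over nuclei in vehicle wells. Duplicate plates were run and medians reported. Lung cancer cell lines in 1536-well plates were dosed by pin tool one day after seeding, with one drug or with a fixed anchor-drug dose plus five library-drug doses (not always all listed) in √10 steps, and nuclei were counted after 5 days.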

NCI-H2347 = tested on: NCI-H2347
How it was run: as §1

HCC-15 = tested on: HCC-15
How it was run: as §1

COR-L 105 = tested on: COR-L 105
How it was run: as §1

UMC-11 = tested on: UMC-11
How it was run: as §1

NCI-H838 = tested on: NCI-H838
How it was run: as §1

HARA = tested on: HARA
How it was run: as §1

NCI-H2009 = tested on: NCI-H2009
How it was run: as §1

COR-L23 = tested on: COR-L23
How it was run: as §1

NCI-H1792 = tested on: NCI-H1792
How it was run: as §1

NCI-H522 = tested on: NCI-H522
How it was run: as §1

HOP-62 = tested on: HOP-62
How it was run: as §1

NCI-H2170 = tested on: NCI-H2170
How it was run: as §1

NCI-H647 = tested on: NCI-H647
How it was run: as §1

NCI-H1355 = tested on: NCI-H1355
How it was run: as §1

NCI-H2228 = tested on: NCI-H2228
How it was run: as §1

NCI-H1793 = tested on: NCI-H1793
How it was run: as §1

NCI-H1395 = tested on: NCI-H1395
How it was run: as §1

NCI-H1734 = tested on: NCI-H1734
How it was run: as §1

NCI-H358 = tested on: NCI-H358
How it was run: as §1

NCI-H1993 = tested on: NCI-H1993
How it was run: as §1

NCI-H1755 = tested on: NCI-H1755
How it was run: as §1

`Nc1ccn([C@@H]2O[C@H](CO)[C@@H](O)[C@@H]2O)c(=O)n1` [Cytarabine] + O=C(c1cc(Cc2n[nH]c(=O)c3ccccc23)ccc1F)N1CCN(C(=O)C2CC2)CC1 [Olaparib] (partner 8 µM) showed a relative viability (SK-MES-1; first compound 0.005 µM) of 0.619, a relative viability (SK-MES-1; first compound 0.01581 µM) of 0.527 and a relative viability (SK-MES-1; first compound 0.05 µM) of 0.313. For the same compound, the relative viability (SK-MES-1; first compound 0.1581 µM) was 0.173, the relative viability (SK-MES-1; first compound 0.5 µM) was 0.183 and the relative viability (NCI-H2347; first compound 0.005 µM) was 0.59. For the same compound, the relative viability (NCI-H2347; first compound 0.01581 µM) was 0.569, the relative viability (NCI-H2347; first compound 0.05 µM) was 0.522 and the relative viability (NCI-H2347; first compound 0.1581 µM) was 0.538. For the same compound, the relative viability (NCI-H2347; first compound 0.5 µM) was 0.493, the relative viability (HCC-15; first compound 0.005 µM) was 0.706 and the relative viability (HCC-15; first compound 0.01581 µM) was 0.655. The relative viability (HCC-15; first compound 0.05 µM) was 0.841, the relative viability (HCC-15; first compound 0.1581 µM) was 0.649 and the relative viability (HCC-15; first compound 0.5 µM) was 0.539. The relative viability (COR-L 105; first compound 0.005 µM) was 0.841, the relative viability (COR-L 105; first compound 0.01581 µM) was 0.791 and the relative viability (COR-L 105; first compound 0.05 µM) was 0.417. The relative viability (COR-L 105; first compound 0.1581 µM) was 0.469, the relative viability (COR-L 105; first compound 0.5 µM) was 0.358 and the relative viability (UMC-11; first compound 0.005 µM) was 0.345. It also gave a relative viability (UMC-11; first compound 0.01581 µM) of 0.329, a relative viability (UMC-11; first compound 0.05 µM) of 0.302 and a relative viability (UMC-11; first compound 0.1581 µM) of 0.248. It also gave a relative viability (UMC-11; first compound 0.5 µM) of 0.218, a relative viability (NCI-H838; first compound 0.005 µM) of 0.633 and a relative viability (NCI-H838; first compound 0.01581 µM) of 0.655. It also gave a relative viability (NCI-H838; first compound 0.05 µM) of 0.643, a relative viability (NCI-H838; first compound 0.1581 µM) of 0.278 and a relative viability (NCI-H838; first compound 0.5 µM) of 0.197. For the same compound, the relative viability (HARA; first compound 0.005 µM) was 0.928, the relative viability (HARA; first compound 0.01581 µM) was 0.413 and the relative viability (HARA; first compound 0.05 µM) was 0.487. The relative viability (HARA; first compound 0.1581 µM) was 0.179, the relative viability (HARA; first compound 0.5 µM) was 0.162 and the relative viability (NCI-H2009; first compound 0.005 µM) was 0.744. For the same compound, the relative viability (NCI-H2009; first compound 0.01581 µM) was 0.752, the relative viability (NCI-H2009; first compound 0.05 µM) was 0.724 and the relative viability (NCI-H2009; first compound 0.1581 µM) was 0.644. For the same compound, the relative viability (NCI-H2009; first compound 0.5 µM) was 0.202, the relative viability (COR-L23; first compound 0.005 µM) was 0.305 and the relative viability (COR-L23; first compound 0.01581 µM) was 0.309. The relative viability (COR-L23; first compound 0.05 µM) was 0.275, the relative viability (COR-L23; first compound 0.1581 µM) was 0.131 and the relative viability (COR-L23; first compound 0.5 µM) was 0.124. It also gave a relative viability (NCI-H1792; first compound 0.01581 µM) of 0.399, a relative viability (NCI-H1792; first compound 0.05 µM) of 0.248 and a relative viability (NCI-H1792; first compound 0.1581 µM) of 0.167. For the same compound, the relative viability (NCI-H1792; first compound 0.5 µM) was 0.0776, the relative viability (NCI-H522; first compound 0.005 µM) was 0.654 and the relative viability (NCI-H522; first compound 0.01581 µM) was 0.602. It also gave a relative viability (NCI-H522; first compound 0.05 µM) of 0.813, a relative viability (NCI-H522; first compound 0.1581 µM) of 0.545 and a relative viability (NCI-H522; first compound 0.5 µM) of 0.426. The relative viability (HOP-62; first compound 0.005 µM) was 0.436, the relative viability (HOP-62; first compound 0.01581 µM) was 0.338 and the relative viability (HOP-62; first compound 0.05 µM) was 0.253. The relative viability (HOP-62; first compound 0.1581 µM) was 0.13, the relative viability (HOP-62; first compound 0.5 µM) was 0.0414 and the relative viability (NCI-H2170; first compound 0.005 µM) was 0.544. For the same compound, the relative viability (NCI-H2170; first compound 0.01581 µM) was 0.47, the relative viability (NCI-H2170; first compound 0.05 µM) was 0.408 and the relative viability (NCI-H2170; first compound 0.1581 µM) was 0.265. The relative viability (NCI-H2170; first compound 0.5 µM) was 0.23, the relative viability (NCI-H647; first compound 0.005 µM) was 0.285 and the relative viability (NCI-H647; first compound 0.01581 µM) was 0.22. It also gave a relative viability (NCI-H647; first compound 0.05 µM) of 0.174, a relative viability (NCI-H647; first compound 0.1581 µM) of 0.0623 and a relative viability (NCI-H647; first compound 0.5 µM) of 0.0624. For the same compound, the relative viability (NCI-H1355; first compound 0.005 µM) was 0.731, the relative viability (NCI-H1355; first compound 0.01581 µM) was 0.673 and the relative viability (NCI-H1355; first compound 0.05 µM) was 0.57. For the same compound, the relative viability (NCI-H1355; first compound 0.1581 µM) was 0.396, the relative viability (NCI-H1355; first compound 0.5 µM) was 0.344 and the relative viability (NCI-H2228; first compound 0.005 µM) was 0.379. It also gave a relative viability (NCI-H2228; first compound 0.01581 µM) of 0.203, a relative viability (NCI-H2228; first compound 0.05 µM) of 0.19 and a relative viability (NCI-H2228; first compound 0.1581 µM) of 0.13. For the same compound, the relative viability (NCI-H2228; first compound 0.5 µM) was 0.129, the relative viability (NCI-H1793; first compound 0.005 µM) was 0.989 and the relative viability (NCI-H1793; first compound 0.01581 µM) was 0.847. It also gave a relative viability (NCI-H1793; first compound 0.05 µM) of 0.887, a relative viability (NCI-H1793; first compound 0.1581 µM) of 0.359 and a relative viability (NCI-H1793; first compound 0.5 µM) of 0.244. For the same compound, the relative viability (NCI-H1395; first compound 0.005 µM) was 0.463, the relative viability (NCI-H1395; first compound 0.01581 µM) was 0.432 and the relative viability (NCI-H1395; first compound 0.05 µM) was 0.396. For the same compound, the relative viability (NCI-H1395; first compound 0.1581 µM) was 0.41, the relative viability (NCI-H1395; first compound 0.5 µM) was 0.335 and the relative viability (NCI-H1734; first compound 0.005 µM) was 0.4. The relative viability (NCI-H1734; first compound 0.01581 µM) was 0.243, the relative viability (NCI-H1734; first compound 0.05 µM) was 0.183 and the relative viability (NCI-H1734; first compound 0.1581 µM) was 0.108. For the same compound, the relative viability (NCI-H1734; first compound 0.5 µM) was 0.122, the relative viability (NCI-H358; first compound 0.005 µM) was 0.443 and the relative viability (NCI-H358; first compound 0.01581 µM) was 0.491. The relative viability (NCI-H358; first compound 0.05 µM) was 0.379, the relative viability (NCI-H358; first compound 0.1581 µM) was 0.145 and the relative viability (NCI-H358; first compound 0.5 µM) was 0.115. For the same compound, the relative viability (NCI-H1993; first compound 0.005 µM) was 1.05, the relative viability (NCI-H1993; first compound 0.01581 µM) was 0.933 and the relative viability (NCI-H1993; first compound 0.05 µM) was 0.998. The relative viability (NCI-H1993; first compound 0.1581 µM) was 0.727, the relative viability (NCI-H1993; first compound 0.5 µM) was 0.459 and the relative viability (NCI-H1755; first compound 0.005 µM) was 0.893. The relative viability (NCI-H1755; first compound 0.01581 µM) was 0.889, the relative viability (NCI-H1755; first compound 0.05 µM) was 0.584 and the relative viability (NCI-H1755; first compound 0.1581 µM) was 0.398. The relative viability (NCI-H1755; first compound 0.5 µM) was 0.342.
